pIC50: −log10 of the molar value.
Legend:
[1] = target: Sodium-dependent serotonin transporter (Homo sapiens, UniProt P31645); experiment: Displacement of [I125]RTI-55 from human SERT transfected in human HEK293 cells; type: cell-based
[2] = target: Sodium-dependent dopamine transporter (Homo sapiens, UniProt Q01959); experiment: Displacement of [I125]RTI-55 from human DAT transfected in human HEK293 cells; type: cell-based
[3] = target: Sodium-dependent noradrenaline transporter (Homo sapiens, UniProt P23975); experiment: Displacement of [125I]nisoxetine from human NET transfected in human HEK293 cells; type: cell-based
Homo sapiens [4] = species: Homo sapiens; experiment: Selectivity ratio of IC50 for human DAT to IC50 for human SERT
Homo sapiens [5] = species: Homo sapiens; experiment: Selectivity ratio of IC50 for human NET to IC50 for human SERT

Sodium-dependent serotonin transporter, sequence (P31645 whole entry): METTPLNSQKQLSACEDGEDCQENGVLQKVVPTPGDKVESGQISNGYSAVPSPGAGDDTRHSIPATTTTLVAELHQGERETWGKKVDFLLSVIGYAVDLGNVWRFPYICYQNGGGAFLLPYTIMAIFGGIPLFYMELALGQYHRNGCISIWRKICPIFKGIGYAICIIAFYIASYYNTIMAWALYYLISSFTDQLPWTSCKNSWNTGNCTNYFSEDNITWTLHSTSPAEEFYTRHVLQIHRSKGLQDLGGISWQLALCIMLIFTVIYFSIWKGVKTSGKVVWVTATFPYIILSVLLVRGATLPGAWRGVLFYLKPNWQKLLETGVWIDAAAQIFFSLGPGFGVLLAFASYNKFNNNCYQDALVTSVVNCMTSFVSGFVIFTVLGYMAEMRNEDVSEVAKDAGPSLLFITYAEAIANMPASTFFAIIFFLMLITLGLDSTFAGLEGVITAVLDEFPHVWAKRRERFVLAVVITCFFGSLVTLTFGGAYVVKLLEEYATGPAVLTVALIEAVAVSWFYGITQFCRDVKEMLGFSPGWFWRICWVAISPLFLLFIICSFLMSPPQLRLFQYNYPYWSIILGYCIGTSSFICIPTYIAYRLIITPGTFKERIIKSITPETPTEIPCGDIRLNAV
Sodium-dependent noradrenaline transporter, sequence (P23975 whole entry): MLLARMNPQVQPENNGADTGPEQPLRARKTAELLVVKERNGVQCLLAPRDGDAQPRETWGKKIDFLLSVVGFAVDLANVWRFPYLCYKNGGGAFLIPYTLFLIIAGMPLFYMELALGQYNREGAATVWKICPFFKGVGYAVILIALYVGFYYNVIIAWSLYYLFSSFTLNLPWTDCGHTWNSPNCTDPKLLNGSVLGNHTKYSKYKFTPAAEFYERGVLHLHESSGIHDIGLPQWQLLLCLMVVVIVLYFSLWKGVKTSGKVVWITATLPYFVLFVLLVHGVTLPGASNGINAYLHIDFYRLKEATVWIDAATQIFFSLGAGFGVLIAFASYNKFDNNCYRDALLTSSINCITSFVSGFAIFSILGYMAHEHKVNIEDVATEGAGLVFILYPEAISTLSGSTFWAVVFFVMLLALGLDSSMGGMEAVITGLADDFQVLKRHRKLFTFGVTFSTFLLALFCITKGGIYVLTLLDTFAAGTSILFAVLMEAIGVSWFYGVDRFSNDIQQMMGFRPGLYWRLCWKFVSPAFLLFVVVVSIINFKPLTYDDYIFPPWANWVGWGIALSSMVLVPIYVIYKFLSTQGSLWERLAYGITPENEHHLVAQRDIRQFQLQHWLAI
Sodium-dependent dopamine transporter, sequence (Q01959 whole entry): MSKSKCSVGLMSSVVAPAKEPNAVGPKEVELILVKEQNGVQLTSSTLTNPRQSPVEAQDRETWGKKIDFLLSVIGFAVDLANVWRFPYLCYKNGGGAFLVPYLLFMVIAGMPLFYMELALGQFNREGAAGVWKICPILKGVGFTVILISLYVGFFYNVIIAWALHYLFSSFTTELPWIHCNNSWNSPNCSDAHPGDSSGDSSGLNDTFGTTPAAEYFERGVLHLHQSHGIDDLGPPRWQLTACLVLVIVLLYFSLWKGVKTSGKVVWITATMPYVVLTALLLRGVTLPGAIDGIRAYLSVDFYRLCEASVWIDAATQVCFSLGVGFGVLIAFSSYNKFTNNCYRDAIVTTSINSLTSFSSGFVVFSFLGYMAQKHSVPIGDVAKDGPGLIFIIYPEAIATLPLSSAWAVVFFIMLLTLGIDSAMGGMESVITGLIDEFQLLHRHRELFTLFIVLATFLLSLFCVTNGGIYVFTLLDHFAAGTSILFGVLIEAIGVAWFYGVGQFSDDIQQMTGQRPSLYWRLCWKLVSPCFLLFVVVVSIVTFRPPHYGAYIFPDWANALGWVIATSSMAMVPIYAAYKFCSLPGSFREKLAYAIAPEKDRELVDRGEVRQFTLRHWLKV

pIC50 [1]	Structure (SMILES)	also measured
8.12	CN1CC[C@H](Cc2ccccc2)C[C@@H]1CCc1c[nH]c2ccc(C#N)cc12	
6.92	COc1ccc2[nH]cc(CCC3c4ccccc4CCN3C)c2c1 (configuration not stated)	
8.38	CN1CCc2ccccc2C1CCc1c[nH]c2ccc(C#N)cc12 (single isomer, unassigned; (+))	
9.38	CN1CCc2ccccc2C1CCc1c[nH]c2ccc(C#N)cc12 (single isomer, unassigned; (-)) [listing 1 of 2 here]	pIC50 [2]: 6.21; pIC50 [3]: < 5.00
7.74	N#Cc1ccc2[nH]cc(CC[C@H]3C[C@@H](Cc4ccccc4)CCN3)c2c1	
7.34	N#Cc1ccc2[nH]cc(CCC3CCCCN3Cc3cc(C(F)(F)F)cc(C(F)(F)F)c3)c2c1 (configuration not stated)	
8.24	CN1CCc2ccccc2C1CCc1c[nH]c2ccc(F)cc12 (configuration not stated)	
	CN1CCc2ccccc2C1CCc1c[nH]c2ccc(C#N)cc12 (single isomer, unassigned; (-)) [listing 2 of 2 here]	Ratio IC50 (Homo sapiens [4]): 1500; Ratio IC50 (Homo sapiens [5]): > 20000
7.10	N#Cc1ccc2[nH]cc(CCC3CCCCN3CCC(F)(F)F)c2c1 (configuration not stated)	
8.96	CN1CCc2ccccc2C1CCc1c[nH]c2ccc(C#N)cc12 (stereo in doubt; 21a)	
8.15	N#Cc1ccc2[nH]cc(CCC3CCCCN3Cc3ccccc3)c2c1 (configuration not stated)	

Structure (SMILES)	pIC50 [1]	also measured
CC1(CCc2c[nH]c3ccc(C#N)cc23)CCCCN1 (configuration not stated)	7.77	
CN1CCCC1CCc1c[nH]c2ccc(C#N)cc12 (configuration not stated)	8.09	
CCN1CCCCC1CCc1c[nH]c2ccc(C#N)cc12 (configuration not stated)	8.40	
N#Cc1ccc2[nH]cc(CCC3CCCN3)c2c1 (configuration not stated)	7.77	
CN1CCOCC1CCc1c[nH]c2ccc(C#N)cc12 (configuration not stated)	7.12	
CN1CCCCC1CCc1c[nH]c2ccc(C#N)cc12 (configuration not stated)	8.41	
N#Cc1ccc2[nH]cc(CCC3CCCCN3)c2c1 (configuration not stated)	8.60	
CN1CCCCC1(C)CCc1c[nH]c2ccc(C#N)cc12 (configuration not stated)	8.68	
